# Measured values published in the NIST ThermoML archive (doi:10.1016/j.jct.2008.02.003).
# Numbers after ± are expanded uncertainties.
# Key:
# [1] = Molar enthalpy of transition or fusion; conditions: Crystal; DSC
# [2] = Crystal; DTA
# [3] = molar enthalpy of vaporization or sublimation; conditions: 298.15 K, Calvet microcalorimetry
Structure (SMILES),Molar enthalpy of transition or fusion [1] [kcal/mol],Normal melting temperature [2] [°C],molar enthalpy ([3]; Crystal) [kcal/mol],molar enthalpy ([3]; Liquid) [kcal/mol]
"COc1cccc(Cl)c1Cl [1,2-dichloro-3-methoxybenzene]",5.27 ± 0.12,30.99 ± 0.39,20 ± 0.717,–
"COc1cc(Cl)cc(Cl)c1 [3,5-dichloroanisole]",5.66 ± 0.148,37.37 ± 0.39,18.9 ± 0.717,–
"COc1ccc(Cl)cc1Cl [2,4-dichloro-1-methoxybenzene]",–,–,–,15 ± 0.335
"COc1c(Cl)cccc1Cl [2,6-dichloroanisole]",–,–,–,13.4 ± 0.335
